The target of this data set is HBV. As to conditions: ASO.

Where “and” joins values, the source holds several entries; their conditions need not be identical. Equal values may be shown once. HELM strings list units from the 5' end as sugar, base in round brackets, then linkage (d deoxyribose, r ribose, m 2'-O-methyl, p phosphodiester). Methylation of C is not given here. [moe] = 2'-O-(2-methoxyethyl) (MOE); [cEt] = constrained ethyl (cEt); [sp] = phosphorothioate linkage

As for “RNA1{[moe](G)[sp].[moe](A)[sp].[moe](G)[sp].[cEt](G)[sp].d(T)[sp].d(G)[sp].d(A)[sp].d(A)[sp].d(G)[sp].d(C)[sp].d(G)[sp].d(A)[sp].d(A)[sp].[cEt](G)[sp].[moe](T)[sp].[moe](G)[sp].[moe](C)}$$$$V2.0”, the target mRNA inhibition by setting is: (HepG2, 0.009375 µM) 22%; (HepG2, 0.01875 µM) 25%; (HepG2, 0.0375 µM) 50%; (HepG2, 0.075 µM) 69%; (HepG2, 0.15 µM) 76%; (HepG2, 0.3 µM) 88%.

On to “RNA1{[moe](T)[sp].[moe](G)[sp].[moe](G)[sp].d(A)[sp].d(G)[sp].d(C)[sp].d(C)[sp].d(A)[sp].d(C)[sp].d(C)[sp].d(A)[sp].d(G)[sp].[moe](C)[sp].[moe](A)[sp].[moe](G)[sp].[moe](G)}$$$$V2.0”, for which, where the note is “HepG2, 0.07 µM”, the target mRNA inhibition was 58% and 57%.

Turning to “RNA1{[moe](A)[sp].[moe](T)[sp].[moe](G)[sp].d(A)[sp].d(G)[sp].d(G)[sp].d(C)[sp].d(A)[sp].d(T)[sp].d(A)[sp].d(G)[sp].d(C)[sp].[moe](A)[sp].[moe](G)[sp].[moe](C)[sp].[moe](A)}$$$$V2.0”, for the setting “HepG2, 0.07 µM”, the target mRNA inhibition is 53% and 44%.

For the substance “RNA1{[moe](C)[sp].[moe](A)[sp].[moe](C)[sp].[moe](T)[sp].[moe](A)[sp].[moe](G)[sp].d(T)[sp].d(A)[sp].d(A)[sp].d(A)[sp].d(C)[sp].d(T)[sp].d(G)[sp].d(A)[sp].d(G)[sp].[moe](C)[sp].[moe](C)}$$$$V2.0”, the target mRNA inhibition runs as follows: (HepG2, 0.0092593 µM) 12%; (HepG2, 0.0277778 µM) 40%; (HepG2, 0.07 µM) 87% and 72%; (HepG2, 0.0833333 µM) 42%; (HepG2, 0.25 µM) 65%.

In the case of “RNA1{[moe](T)[sp].[cEt](T)[sp].d(C)[sp].d(C)[sp].d(G)[sp].d(C)[sp].d(A)[sp].d(G)[sp].d(T)[sp].d(A)[sp].d(T)[sp].d(G)[sp].[cEt](G)[sp].[moe](A)[sp].[cEt](T)[sp].[moe](C)}$$$$V2.0”, under “HepG2, 0.07 µM”, the target mRNA inhibition is 50% and 39%.

In the case of “RNA1{[moe](A)[sp].[moe](G)[sp].d(C)[sp].d(G)[sp].d(A)[sp].d(A)[sp].d(G)[sp].d(T)[sp].d(G)[sp].d(C)[sp].d(A)[sp].[moe](C)[sp].[moe](A)[sp].[moe](C)[sp].[moe](G)[sp].[moe](G)}$$$$V2.0”, the target mRNA inhibition reads like this: (HepG2, 0.0092593 µM) 0%; (HepG2, 0.0277778 µM) 30%; (HepG2, 0.07 µM) 79% and 73%; (HepG2, 0.0833333 µM) 72%; (HepG2, 0.25 µM) 84%.

Consider “RNA1{[moe](G)[sp].[moe](T)[sp].[moe](T)[sp].[moe](C)[sp].d(C)[sp].d(G)[sp].d(C)[sp].d(A)[sp].d(G)[sp].d(T)[sp].d(A)[sp].d(T)[sp].d(G)[sp].[moe](G)[sp].[moe](A)[sp].[moe](T)[sp].[moe](C)}$$$$V2.0”, for which the target mRNA inhibition (HepG2, 0.07 µM) was 52% and 43%.

As to “RNA1{[moe](A)[sp].[moe](T)[sp].[moe](T)[sp].[moe](T)[sp].[moe](A)[sp].d(T)[sp].d(G)[sp].d(C)[sp].d(C)[sp].d(T)[sp].d(A)[sp].d(C)[sp].d(A)[sp].d(G)[sp].[moe](C)[sp].[moe](C)}$$$$V2.0”, under “HepG2, 0.07 µM”, the target mRNA inhibition was 47% and 41%.

As for “RNA1{[moe](A)[sp].[moe](T)[sp].[moe](G)[sp].[moe](A)[sp].[moe](G)[sp].d(G)[sp].d(C)[sp].d(A)[sp].d(T)[sp].d(A)[sp].d(G)[sp].d(C)[sp].d(A)[sp].d(G)[sp].[moe](C)[sp].[moe](A)[sp].[moe](G)}$$$$V2.0”, the target mRNA inhibition (HepG2, 0.07 µM) was 50% and 44%.

Turning to “RNA1{[moe](T)[sp].[moe](G)[sp].d(C)[sp].d(A)[sp].d(G)[sp].d(A)[sp].d(G)[sp].d(G)[sp].d(T)[sp].d(G)[sp].d(A)[sp].[moe](A)[sp].[moe](G)[sp].[moe](C)[sp].[moe](G)[sp].[moe](A)[sp].[moe](A)}$$$$V2.0”, the target mRNA inhibition (HepG2, 0.07 µM) is 39% and 45%.

“RNA1{[moe](T)[sp].[moe](G)[sp].[moe](A)[sp].[moe](G)[sp].[moe](G)[sp].[moe](C)[sp].d(A)[sp].d(T)[sp].d(A)[sp].d(G)[sp].d(C)[sp].d(A)[sp].d(G)[sp].d(C)[sp].d(A)[sp].[moe](G)[sp].[moe](G)}$$$$V2.0”: the target mRNA inhibition (HepG2, 0.07 µM) was 58% and 44%.

For “RNA1{[moe](A)[sp].[moe](A)[sp].[moe](G)[sp].[moe](C)[sp].d(G)[sp].d(A)[sp].d(A)[sp].d(G)[sp].d(T)[sp].d(G)[sp].d(C)[sp].d(A)[sp].d(C)[sp].[moe](A)[sp].[moe](C)[sp].[moe](G)[sp].[moe](G)}$$$$V2.0”, the target mRNA inhibition is, setting by setting: (HepG2, 0.0092593 µM) 5%; (HepG2, 0.0277778 µM) 27%; (HepG2, 0.07 µM) 78% and 64%; (HepG2, 0.0833333 µM) 69%; (HepG2, 0.25 µM) 81%.

Regarding “RNA1{[moe](A)[sp].[moe](G)[sp].[moe](G)[sp].[moe](C)[sp].[moe](A)[sp].d(T)[sp].d(A)[sp].d(G)[sp].d(C)[sp].d(A)[sp].d(G)[sp].d(C)[sp].d(A)[sp].d(G)[sp].[moe](G)[sp].[moe](A)[sp].[moe](T)}$$$$V2.0”, the target mRNA inhibition (HepG2, 0.07 µM) is 61% and 56%.

As for “RNA1{[moe](G)[sp].[moe](A)[sp].[moe](G)[sp].[moe](G)[sp].[moe](C)[sp].d(A)[sp].d(T)[sp].d(A)[sp].d(G)[sp].d(C)[sp].d(A)[sp].d(G)[sp].d(C)[sp].d(A)[sp].[moe](G)[sp].[moe](G)[sp].[moe](A)}$$$$V2.0”, the target mRNA inhibition (HepG2, 0.07 µM) is 47% and 43%.

As to “RNA1{[moe](A)[sp].[moe](C)[sp].[moe](G)[sp].[moe](T)[sp].[moe](G)[sp].d(C)[sp].d(A)[sp].d(G)[sp].d(A)[sp].d(G)[sp].d(G)[sp].d(T)[sp].d(G)[sp].d(A)[sp].[moe](A)[sp].[moe](G)[sp].[moe](C)}$$$$V2.0”, the target mRNA inhibition (HepG2, 0.07 µM) was 73% and 52%.

Turning to “RNA1{[moe](T)[sp].[cEt](A)[sp].d(T)[sp].d(G)[sp].d(C)[sp].d(C)[sp].d(T)[sp].d(A)[sp].d(C)[sp].d(A)[sp].d(G)[sp].d(C)[sp].[cEt](C)[sp].[moe](T)[sp].[cEt](C)[sp].[moe](C)}$$$$V2.0”, the target mRNA inhibition (HepG2, 0.07 µM) is 54% and 51%.

In the case of “RNA1{[moe](A)[sp].[moe](A)[sp].d(G)[sp].d(C)[sp].d(G)[sp].d(A)[sp].d(A)[sp].d(G)[sp].d(T)[sp].d(G)[sp].d(C)[sp].[moe](A)[sp].[moe](C)[sp].[moe](A)[sp].[moe](C)[sp].[moe](G)}$$$$V2.0”, the target mRNA inhibition (HepG2, 0.07 µM) was 70% and 68%.

On to “RNA1{[moe](G)[sp].[moe](A)[sp].[moe](T)[sp].d(G)[sp].d(A)[sp].d(G)[sp].d(G)[sp].d(C)[sp].d(A)[sp].d(T)[sp].d(A)[sp].d(G)[sp].d(C)[sp].[cEt](A)[sp].[cEt](G)[sp].[cEt](C)}$$$$V2.0”, for which, for the setting “HepG2, 0.07 µM”, the target mRNA inhibition was 56% and 66%.

For the substance “RNA1{[moe](T)[sp].[moe](C)[sp].[moe](C)[sp].[moe](G)[sp].[moe](C)[sp].d(A)[sp].d(G)[sp].d(T)[sp].d(A)[sp].d(T)[sp].d(G)[sp].d(G)[sp].d(A)[sp].d(T)[sp].[moe](C)[sp].[moe](G)}$$$$V2.0”, the target mRNA inhibition (HepG2, 0.07 µM) is 75% and 59%.

In the case of “RNA1{[moe](G)[sp].[moe](A)[sp].[moe](A)[sp].[moe](C)[sp].[moe](T)[sp].[moe](G)[sp].d(G)[sp].d(A)[sp].d(G)[sp].d(C)[sp].d(C)[sp].d(A)[sp].d(C)[sp].d(C)[sp].d(A)[sp].[moe](G)[sp].[moe](C)}$$$$V2.0”, where the note is “HepG2, 0.07 µM”, the target mRNA inhibition was 55% and 48%.

(Values after the OligoGym collection.)
